# Measurements: PMC4096627 (Bioorganic & medicinal chemistry, 2014)
# Where a name gives a salt, the structure may show the parent alone.
# Experiments:
# Dopamine Receptor D4 [1] = biological target: T1, Dopamine Receptor D4 (Homo sapiens, UniProt P21917); assay: NIMH-PDSP binding affinity at dopamine receptor subtype D4; details: for D2/D4: ratio of Ki D2 to Ki D4
# T1 sequence (P21917 1-419): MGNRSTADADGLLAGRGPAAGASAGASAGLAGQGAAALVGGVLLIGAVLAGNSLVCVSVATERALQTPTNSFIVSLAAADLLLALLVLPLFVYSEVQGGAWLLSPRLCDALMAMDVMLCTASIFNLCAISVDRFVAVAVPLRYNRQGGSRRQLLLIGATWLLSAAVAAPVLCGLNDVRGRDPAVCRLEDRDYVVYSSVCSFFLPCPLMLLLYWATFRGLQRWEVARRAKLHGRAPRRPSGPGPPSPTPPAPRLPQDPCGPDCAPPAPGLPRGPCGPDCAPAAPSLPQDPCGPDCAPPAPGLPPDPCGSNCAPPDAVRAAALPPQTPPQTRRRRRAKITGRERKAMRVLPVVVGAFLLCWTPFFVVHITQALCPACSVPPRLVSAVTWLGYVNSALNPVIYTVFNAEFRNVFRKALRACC
# Dopamine Receptor D1 = Dopamine Receptor D1 (Homo sapiens, UniProt P21728); assay: NIMH-PDSP binding affinity at dopamine receptor subtype D1; details: for primary assay inhibition at D1: primary assay threshold
# Sequence of Dopamine Receptor D1 (P21728 whole entry): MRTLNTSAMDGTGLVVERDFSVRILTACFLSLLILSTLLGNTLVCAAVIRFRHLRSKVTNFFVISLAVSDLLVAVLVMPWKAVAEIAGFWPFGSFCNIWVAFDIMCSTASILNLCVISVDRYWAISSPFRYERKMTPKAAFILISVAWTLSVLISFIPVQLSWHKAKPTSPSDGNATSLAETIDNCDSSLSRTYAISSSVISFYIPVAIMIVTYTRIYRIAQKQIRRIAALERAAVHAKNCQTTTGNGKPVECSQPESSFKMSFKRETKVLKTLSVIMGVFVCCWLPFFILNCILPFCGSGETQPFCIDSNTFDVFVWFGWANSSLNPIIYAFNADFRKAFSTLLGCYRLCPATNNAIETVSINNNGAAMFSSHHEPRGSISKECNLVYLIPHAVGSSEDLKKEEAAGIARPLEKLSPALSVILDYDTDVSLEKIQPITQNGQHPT
# Dopamine Receptor D4 [2] = biological target: T1, Dopamine Receptor D4; details: compounds 1-7, D2-like data; ref Previous publications from our lab; cited from earlier work
# Dopamine Receptor D5 = Dopamine Receptor D5 (Homo sapiens, UniProt P21918); assay: NIMH-PDSP binding affinity at dopamine receptor subtype D5; details: for primary assay inhibition at D5: primary assay threshold
# Sequence of Dopamine Receptor D5 (P21918 whole entry): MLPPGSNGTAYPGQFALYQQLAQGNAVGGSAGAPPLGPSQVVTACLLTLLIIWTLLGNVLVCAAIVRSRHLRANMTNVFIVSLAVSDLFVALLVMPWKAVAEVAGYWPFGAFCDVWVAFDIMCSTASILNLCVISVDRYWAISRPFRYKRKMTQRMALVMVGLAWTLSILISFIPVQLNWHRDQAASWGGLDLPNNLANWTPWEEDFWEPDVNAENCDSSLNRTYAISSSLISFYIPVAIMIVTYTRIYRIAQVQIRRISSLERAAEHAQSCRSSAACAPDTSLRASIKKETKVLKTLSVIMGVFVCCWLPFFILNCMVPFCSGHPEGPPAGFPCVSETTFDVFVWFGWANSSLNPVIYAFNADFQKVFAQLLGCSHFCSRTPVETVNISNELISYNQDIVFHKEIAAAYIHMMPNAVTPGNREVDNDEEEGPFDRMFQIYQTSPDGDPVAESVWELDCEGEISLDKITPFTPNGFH
# Dopamine Receptor D2 = Dopamine Receptor D2 (Homo sapiens, UniProt P14416); assay: NIMH-PDSP binding affinity at dopamine receptor subtype D2; details: for primary assay inhibition at D2: primary assay threshold
# Sequence of Dopamine Receptor D2 (P14416 whole entry): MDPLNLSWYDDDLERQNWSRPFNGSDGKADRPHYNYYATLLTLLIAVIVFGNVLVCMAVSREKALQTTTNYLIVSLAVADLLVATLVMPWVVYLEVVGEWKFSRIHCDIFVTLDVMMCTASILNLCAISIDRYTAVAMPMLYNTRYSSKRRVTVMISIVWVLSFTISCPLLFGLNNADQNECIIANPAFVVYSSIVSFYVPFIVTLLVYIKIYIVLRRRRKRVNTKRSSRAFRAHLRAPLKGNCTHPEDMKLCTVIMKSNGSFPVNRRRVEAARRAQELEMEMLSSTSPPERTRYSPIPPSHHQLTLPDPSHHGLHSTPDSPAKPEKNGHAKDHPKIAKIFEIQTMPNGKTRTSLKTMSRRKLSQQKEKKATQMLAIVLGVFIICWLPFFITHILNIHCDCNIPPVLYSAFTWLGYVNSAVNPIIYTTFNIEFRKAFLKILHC
# Dopamine Receptor D3 = Dopamine Receptor D3 (Homo sapiens, UniProt P35462); assay: NIMH-PDSP binding affinity at dopamine receptor subtype D3
# Sequence of Dopamine Receptor D3 (P35462 whole entry): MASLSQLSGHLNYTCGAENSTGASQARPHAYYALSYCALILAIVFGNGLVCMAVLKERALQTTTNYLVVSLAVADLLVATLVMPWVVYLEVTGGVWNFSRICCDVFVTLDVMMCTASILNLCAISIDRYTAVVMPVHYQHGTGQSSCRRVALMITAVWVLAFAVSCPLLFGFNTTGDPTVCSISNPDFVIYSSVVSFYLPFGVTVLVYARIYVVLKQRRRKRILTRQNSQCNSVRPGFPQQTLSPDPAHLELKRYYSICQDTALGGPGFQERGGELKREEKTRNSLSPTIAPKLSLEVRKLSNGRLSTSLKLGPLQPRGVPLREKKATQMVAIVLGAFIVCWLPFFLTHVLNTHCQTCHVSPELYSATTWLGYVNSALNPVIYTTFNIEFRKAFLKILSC
SMILES,D2/D4 (Dopamine Receptor D4 [1]),primary assay inhibition at D1 (Dopamine Receptor D1),primary assay inhibition at D5 (Dopamine Receptor D5),other results
O=C(CCCN1CCN(c2ccc(Cl)cc2)CC1)c1ccc(F)cc1 [Compound 1],14.5,–,–,D3/D4 (Dopamine Receptor D4 [1]; ratio of Ki D3 to Ki D4): 23.1
[O-][S+](CCCN1CCN(c2ccc(Cl)cc2)CC1)c1ccc(F)cc1 (centres unmarked) [Compound 2],–,MT (Missed primary assay threshold of 50% inhibition),MT (Missed primary assay threshold of 50% inhibition),pKi ±SEM at the Dopamine Receptor Subtype D4 (Dopamine Receptor D4 [2]): 7.89±0.05
Clc1ccc(N2CCN(CCCOc3ccccc3)CC2)cc1 [Compound 6],–,–,–,pKi ±SEM at the Dopamine Receptor Subtype D4 (Dopamine Receptor D4 [2]): 8.26±0.03
"O=C1c2ccc(F)cc2CC1CCN1CCN(c2ccc(Cl)cc2)CC1 (centres unmarked) [Compound 8, 2-(2-(4-(4-Chlorophenyl)piperazin-1-yl)ethyl)-5-fluoro-indan-1-one hydrochloride]",–,–,MT (Missed primary assay threshold of 50% inhibition),–
"O=C1c2ccccc2CC1CCN1CCN(c2ccc(Cl)cc2)CC1 (centres unmarked) [Compound 9, 2-{2-[4-(4-Chloro-phenyl)-piperazin-1-yl]-ethyl}-indan-1-one tosylate]",>277,–,MT (Missed primary assay threshold of 50% inhibition),–
"Fc1ccc2c(c1)CC(CCN1CCN(c3ccc(Cl)cc3)CC1)C2 (centres unmarked) [Compound 10, 1-(4-Chlorophenyl)-4-(2-(5-fluoro-2,3-dihydro-1H-inden-2-yl)ethyl)piperazine dihydrochloride]",–,–,MT (Missed primary assay threshold of 50% inhibition),–
"Cc1ccc(N2CCN(CCCOc3ccc(F)cc3)CC2)nc1 [Compound 15a, 1-(3-(4-Fluorophenoxy)propyl)-4-(5-methylpyridin-2-yl)piperazine]",–,–,–,Ki (Dopamine Receptor D4 [1]; pKi ±SEM at the Dopamine Receptor Subtype D4): 1.1 nM
"Cc1ccc(N2CCN(CCCSc3ccc(F)cc3)CC2)nc1 [Compound 15b, 1-(3-((4-Fluorophenyl)thio)propyl)-4-(5-methylpyridin-2-yl)piperazine]",–,–,–,pKi ±SEM at the Dopamine Receptor Subtype D2 (Dopamine Receptor D2): 6±0.1; pKi ±SEM at the Dopamine Receptor Subtype D5 (Dopamine Receptor D5): 5.7±0.1; pKi ±SEM at the Dopamine Receptor Subtype D3 (Dopamine Receptor D3): 6.8±0.1
Fc1ccc(OCCCN2CCN(c3ncccn3)CC2)cc1 [Compound 16a],–,–,MT (Missed primary assay threshold of 50% inhibition),–
"Clc1ccc(N2CCN(CCCCc3nc4ccccc4o3)CC2)cc1 [Compound 20, 2-(4-(4-(4-Chlorophenyl)piperazin-1-yl)butyl)benzo[d]oxazole]",>327,MT (Missed primary assay threshold of 50% inhibition),MT (Missed primary assay threshold of 50% inhibition),primary assay inhibition at D2 (Dopamine Receptor D2): MT (Missed primary assay threshold of 50% inhibition)
"Clc1ccc(N2CCN(CCc3nc4ccccc4o3)CC2)cc1 [Compound 22, 2-(2-(4-(4-Chlorophenyl)piperazin-1-yl)ethyl)benzo[d]oxazole]",>7.1,MT (Missed primary assay threshold of 50% inhibition),MT (Missed primary assay threshold of 50% inhibition),primary assay inhibition at D2 (Dopamine Receptor D2): MT (Missed primary assay threshold of 50% inhibition)
"Clc1ccc(N2CCN(CCc3cc4ccccc4o3)CC2)cc1 [Compound 23, 1-(2-(Benzofuran-2-yl)ethyl)-4-(4-chlorophenyl)piperazine]",–,MT (Missed primary assay threshold of 50% inhibition),MT (Missed primary assay threshold of 50% inhibition),primary assay inhibition at D2 (Dopamine Receptor D2): MT (Missed primary assay threshold of 50% inhibition); primary assay inhibition at D3 (Dopamine Receptor D3; primary assay threshold): MT (Missed primary assay threshold of 50% inhibition)
"Clc1ccc(N2CCN(CCCc3cc4ccccc4o3)CC2)cc1 [Compound 24, 1-(3-(Benzofuran-2-yl)propyl)-4-(4-chlorophenyl)piperazine]",–,–,MT (Missed primary assay threshold of 50% inhibition),–
"Clc1ccc(N2CC3CC2CN3CCCc2cc3ccccc3o2)cc1 (centres unmarked) [Compound 25, 2-(3-(Benzofuran-2-yl)propyl)-5-(4-chlorophenyl)-2,5-diazabicyclo[2.2.1]heptane]",>4.2-,MT (Missed primary assay threshold of 50% inhibition),MT (Missed primary assay threshold of 50% inhibition),primary assay inhibition at D2 (Dopamine Receptor D2): MT (Missed primary assay threshold of 50% inhibition)
c1cnc(N2CCN(CCCCc3nc4ccccc4s3)CC2)nc1 [Compound 27],–,MT (Missed primary assay threshold of 50% inhibition),MT (Missed primary assay threshold of 50% inhibition),–
"c1cnc(N2CCN(CCCc3nc4ccccc4s3)CC2)nc1 [Compound 28, 2-(3-(4-(Pyrimidin-2-yl)piperazin-1-yl)propyl)benzo[d]thiazole trihydrobromide]",–,MT (Missed primary assay threshold of 50% inhibition),MT (Missed primary assay threshold of 50% inhibition),inhibition of the appropriate radioligand at D1 (Dopamine Receptor D1; other DA subtypes): less than 50%; inhibition of the appropriate radioligand at D5 (Dopamine Receptor D5; other DA subtypes): less than 50%
